According to ChEMBL document CHEMBL5126507, “P2Y12 antagonists: Approved drugs, potential naturally isolated and synthesised compounds, and related in-silico studies” (Eur J Med Chem, 2022):

What was measured:
P2Y purinoceptor 12 [1] = molecular target: T1, P2Y purinoceptor 12 (Homo sapiens, UniProt Q9H244); test: Displacement of [3H]2MeSADP from P2Y12 (unknown origin)
[2] = Antiplatelet activity in rat platelet rich plasma assessed as inhibition of ADP-induced platelet aggregation preincubated for 1 min followed by ADP addition and measured after 6 mins by Born method; type: functional, cell-based
Blood [3] = test: Ex vivo inhibition of platelet aggregation in Sprague-Dawley rat blood at 1 mg/kg, iv measured after 2 hrs; type: functional
Blood [4] = test: Ex vivo inhibition of platelet aggregation in Sprague-Dawley rat blood at 3 mg/kg, po measured after 2 hrs; type: functional
[5] = Antiplatelet activity in human platelet rich plasma assessed as inhibition of ADP-induced platelet aggregation preincubated for 1 min followed by ADP addition and measured after 6 to 8 mins by Born method; type: functional, cell-based
P2Y purinoceptor 12 [6] = molecular target: T1, P2Y purinoceptor 12; test: Displacement of [3H]2MeSADP from human P2Y12 expressed in U2OS cell membranes incubated for 60 mins by scintillation counting method; design: species or system Membrane
[7] = Antiplatelet activity in human platelet rich plasma assessed as inhibition of ADP-induced platelet aggregation preincubated for 5 mins followed by ADP addition and measured after 5 mins; type: functional, cell-based
[8] = Antiplatelet activity in human platelet rich plasma assessed as inhibition of ADP-induced platelet aggregation preincubated for 2 mins followed by ADP addition and measured after 6 mins by Born method; type: functional, cell-based
P2Y purinoceptor 12 [9] = molecular target: T1, P2Y purinoceptor 12; test: Displacement of tritium-labeled 2MeSADP from human P2Y12 expressed in CHO cells measured after 2 hrs by scintillation counting method; type: cell-based
P2Y purinoceptor 12 [10] = molecular target: T1, P2Y purinoceptor 12; test: Binding affinity to P2Y12 (unknown origin)
[11] = Antiplatelet activity in human platelet rich plasma assessed as inhibition of ADP-induced platelet aggregation preincubated for 2 mins followed by ADP addition for 5 mins; type: functional, cell-based
P2Y purinoceptor 12 [12] = molecular target: T1, P2Y purinoceptor 12; test: Inhibition of 2-MeS-ADP induced P2Y12 (unknown origin) signalling expressed in CHO cells membrane incubated for 45 mins by 35S-GTPgammaS assay; type: functional, cell membranes
Blood [13] = test: Ex vivo inhibition of platelet aggregation in Sprague-Dawley rat blood at 10 mg/kg, po measured after 2 hrs; type: functional; design: scale not given: the % may be the effect or the level left
Blood [14] = test: Ex vivo inhibition of platelet aggregation in Sprague-Dawley rat blood at 3 mg/kg, iv measured after 2 hrs; type: functional; design: scale not given: the % may be the effect or the level left
[15] = Lipophilicity, logP of compound; type: physicochemical; details: octanol/water
[16] = Anti-platelet aggregation activity in human platelets assessed as inhibition of epinephrine induced aggregation; type: functional, cell-based
Rattus norvegicus = species: Rattus norvegicus; test: Anti-platelet aggregation activity in Sprague-Dawley rat assessed as reduction in bleeding time; type: functional
[17] = Antiplatelet activity in human platelet rich plasma assessed as inhibition of ADP-induced platelet aggregation preincubated for 5 mins followed by ADP addition and measured after 20 mins by microplate reader analysis; type: functional, cell-based
P2Y purinoceptor 1 = P2Y purinoceptor 1 (Homo sapiens, UniProt P47900); test: Displacement of [3H]2MeSADP from human P2Y1 expressed in U2OS cell membranes incubated for 60 mins by scintillation counting method; design: species or system Membrane
Sequence of P2Y purinoceptor 1 (P47900 whole entry): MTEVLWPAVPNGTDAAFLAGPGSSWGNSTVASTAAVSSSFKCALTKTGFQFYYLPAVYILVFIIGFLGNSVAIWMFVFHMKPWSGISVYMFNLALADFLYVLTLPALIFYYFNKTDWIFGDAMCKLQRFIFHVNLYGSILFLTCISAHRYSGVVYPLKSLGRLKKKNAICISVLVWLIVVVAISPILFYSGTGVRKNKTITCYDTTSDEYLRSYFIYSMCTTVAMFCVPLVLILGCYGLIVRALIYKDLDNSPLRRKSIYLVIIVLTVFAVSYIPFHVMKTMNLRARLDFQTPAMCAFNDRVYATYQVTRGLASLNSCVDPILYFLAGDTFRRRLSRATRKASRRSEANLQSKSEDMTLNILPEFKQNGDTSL

T1 sequence (Q9H244 whole entry): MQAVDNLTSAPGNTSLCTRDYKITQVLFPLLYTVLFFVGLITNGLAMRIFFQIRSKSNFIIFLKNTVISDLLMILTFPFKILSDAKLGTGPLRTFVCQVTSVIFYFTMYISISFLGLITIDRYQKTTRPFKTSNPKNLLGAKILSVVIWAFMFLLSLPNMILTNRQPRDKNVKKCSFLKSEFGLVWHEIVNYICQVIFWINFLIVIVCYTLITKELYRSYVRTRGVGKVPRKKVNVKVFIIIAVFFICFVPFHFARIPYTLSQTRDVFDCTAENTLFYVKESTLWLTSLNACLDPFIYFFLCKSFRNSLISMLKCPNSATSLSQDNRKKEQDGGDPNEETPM

`C[C@H]([C@@H](O)[C@H](O)[C@@H](C)C(C)(C)C)[C@H]1CC[C@H]2[C@@H]3CC[C@H]4C[C@@H](OS(=O)(=O)O)[C@H](OS(=O)(=O)O)C[C@]4(C)[C@H]3CC[C@]12C` gave an IC50 (P2Y purinoceptor 12 [1]) of 2200 nM.

For `CCCC(=O)c1cnn(C2CCN(NC(=O)c3cn(CC(=O)N4CCN(C)CC4)c4ccc(Cl)cc34)CC2)c1C`, the IC50 [2] was 43 nM, the inhibition in vivo at 1 mg/kg (Blood [3]) was 88% and the inhibition in vivo at 3 mg/kg (Blood [4]) was 72%. For the same molecule, the IC50 [5] was 25 nM.

In the case of `O=C(/C=C/c1ccc(O)c2c1[C@H](C(=O)O[C@H](Cc1ccc(O)c(O)c1)C(=O)O)[C@@H](c1ccc(O)c(O)c1)O2)O[C@H](Cc1ccc(O)c(O)c1)C(=O)O`, the Ki (P2Y purinoceptor 12 [6]) is reported as 36400 nM.

Molecule `COc1cc(/C=C/c2cc(O)cc(O)c2)ccc1O` has an IC50 [7] of 1850 nM.

`CCCCOC(=O)N1CCN(C(=O)[C@H](CCC(=O)O)NC(=O)c2cc(OCC(=O)N3CCC[C@H]3C(=O)N(C)C3CC3)n(-c3ccccc3)n2)CC1` showed an IC50 [8] of at most 11 nM.

`CCCCOC(=O)N1CCN(C(=O)[C@H](CP(=O)(O)O)NC(=O)c2csc(-c3ccccc3)n2)CC1` showed an IC50 (P2Y purinoceptor 12 [9]) of 1 nM.

Work on `Cc1cnc(-c2cnc(N3CCN(C(=O)NS(=O)(=O)c4ccccc4)CC3)c(Cl)c2)o1` yielded an IC50 (P2Y purinoceptor 12 [10]) of 320 nM.

In the case of `CCCCOC(=O)N1CCN(C(=O)[C@H](CP(=O)(OCOC(=O)OC(C)C)OCOC(=O)OC(C)C)NC(=O)c2cc(N3CC[C@H](OC)C3)nc(-c3ccccc3)n2)CC1`, the IC50 [11] is reported as 8 nM.

`CCCC(=O)c1cc(C#N)c(N(C(=O)C2CCNCC2)S(=O)(=O)Cc2cccc(F)c2)nc1C` showed an IC50 (P2Y purinoceptor 12 [12]) of 100 nM.

Molecule `CCOC(=O)N1CCN(C(=O)[C@@H](CCC(=O)O)NC(=O)c2cc(Cl)cc(-c3ccccc3)n2)CC1` has an IC50 (P2Y purinoceptor 12 [9]) of 34 nM.

Molecule `CCCC(=O)c1cnn(-c2ccc(NC(=O)c3cn(CC(=O)N4CCN(C)CC4)c4ccc(Cl)cc34)nn2)c1C` has an Activity (Blood [13]) of 73.5% and an Activity (Blood [14]) of 79%.

Molecule `CC(=O)Oc1cc2c(s1)CCN(C(C(=O)C1CC1)c1ccccc1F)C2` (configuration not stated) [PRASUGREL] has a logP [15] of 3.42.

`Clc1ccccc1CN1CCc2sccc2C1` [TICLOPIDINE] gave a logP [15] of 4.05.

Molecule `C[C@@H]1CC[C@]2(C(=O)O)CC[C@]3(C)C(=CC[C@@H]4[C@@]5(C)CC[C@H](O)C(C)(C)[C@@H]5CC[C@]43C)[C@@H]2[C@]1(C)O` [POMOLIC ACID] has an IC50 [16] of 20 nM.

In the case of `CCOC(=O)N1CCN(C(=O)[C@H](Cc2ccc(P(=O)(O)O)cc2)NC(=O)c2csc(-c3ccccc3)n2)CC1`, the IC50 (P2Y purinoceptor 12 [9]) is reported as 1 nM.

In the case of `COC(=O)C(c1ccccc1Cl)N1CCc2sc(OC(=O)C(N)CC(C)C)cc2C1.Cl` (configuration not stated), the ED50 (Rattus norvegicus) is reported as 2.16 mg/kg.

Work on `CCOC(=O)N1CCN(C(=O)[C@H](CCC(=O)O)NC(=O)c2cc(OCC(=O)N3CCC[C@H]3C(=O)NC3CC3)n(-c3ccccc3)n2)CC1` yielded an IC50 [8] of at most 11 nM.

`CCCCOC(=O)N1CCN(C(=O)[C@H](CP(=O)(O)O)NC(=O)c2nc(-c3ccccc3)sc2N(C)CCCC)CC1` showed an IC50 (P2Y purinoceptor 12 [9]) of 1 nM.

For `CCCCOC(=O)N1CCN(C(=O)[C@H](CCC(=O)O)NC(=O)c2nc(-c3ccccc3)sc2N2CC[C@H](OC)C2)CC1`, the IC50 (P2Y purinoceptor 12 [9]) was 1 nM.

Work on `CCCCOC(=O)N1CCN(C(=O)[C@H](CP(=O)(O)O)NC(=O)c2nc(-c3ccccc3)sc2N2CCN(C)CC2)CC1` yielded an IC50 (P2Y purinoceptor 12 [9]) of 1 nM.

With `O=C(O)CC[C@H](NC(=O)c1cc(OCC(=O)N2CCC[C@H]2C(=O)NC2CCC2)n(-c2ccccc2)n1)C(=O)N1CCN(C(=O)OC2CCC2)CC1` the IC50 [8] was at most 11 nM.

Work on `CCOC(=O)N1CCN(C(=O)[C@H](CCC(=O)O)NC(=O)c2cc(OCC(=O)N[C@@H](C)C(=O)O)n(-c3ccccc3)n2)CC1` yielded an IC50 [17] of 1480 nM.

For `O=C(/C=C/c1ccc(O)c(O)c1/C=C/c1ccc(O)c(O)c1)O[C@H](Cc1ccc(O)c(O)c1)C(=O)O` [SALVIANOLIC ACID A], the Ki (P2Y purinoceptor 1) was 20300 nM.
